Patent publication US12310941B2, “Agent for protection of blood brain spinal cord barrier” (National University Corporation Hokkaido University, priority 2020, dated 2025)

Tests used:
[1] = system: Human brain vascular endothelial cells (hCMEC/D3); experiment: Cell viability of human brain vascular endothelial cells under hydrogen peroxide stress; format: cell-based; details: 450 μM hydrogen peroxide, 6 hours; PrestoBlue; stressed cells without test compound about 0.2; FIG. 17
Protocol: Human brain vascular endothelial cells (hCMEC/D3, Sigma) were seeded to 5,000 cells/cm^2 on a 96-well plate (Falcon cell culture 96-well multi-well plate, with flat bottom lid) coated with 0.1 mg/ml collagen type 1 (Sigma-Aldrich), and cultured at 37° C. for 24 hours with 5% CO2 using Endothelial Cell Growth Medium (PromoCell, Germany). Bismuth citrate, bismuth subnitrate, bismuth tartrate, or zinc sulfate dissolved in saline, and hydrogen peroxide at a final concentration of 450 μM were added to the medium and incubated for 6 hours to simultaneously stress the cells and treat them with test compounds. The cell viability after loading stress was measured using PrestoBlue (registered trademark) Cell Viability Reagent (Life Technologies).
The cell viability is illustrated in FIG. 17 when the cell viability of the control without hydrogen peroxide stress is 1 and the cell-free is 0. […] Note that the survival rate of the cells subjected to hydrogen peroxide stress and not added the test compound was about 0.2.

[2] = system: spinal cord crush injury rats; experiment: Histological evaluation in spinal cord crush injury model; format: in vivo, Lewis rats; details: 8 weeks after injury, vs vehicle; for reactive astrocyte area (GFAP positive area): FIG. 6
Protocol: Crush injuries were created in the fifth cervical cord (C5) of Lewis rats (female, 8 to 14 weeks old, n=14 to 18/group) under anesthesia by applying a pressure of 200 kdyn using an IH impactor. For seven consecutive days from the day of injury creation, 380 to 420 μL of the test compound dissolved in saline or DMSO, or vehicle was intraperitoneally administered. The daily doses were 20 mg/kg body weight of papaverine, 1 mg/kg body weight of mubritinib, and 1 mg/kg body weight of brexpiprazole. After the rats were kept for 8 weeks from injury creation, histological evaluation and sensory function evaluation for pathological conditions at the chronic stage of the spinal cord injury were performed. After perfusion and fixation of the rats in the same manner as in Example 3, the 2 cm long spinal cord centering the injury site was dissected. The dissected spinal cords were immersed in PBS containing 30% sucrose for overnight and then transected horizontally to prepare frozen sections having a thickness of 30 μm. After washing the sections with TBS, blocking was performed in a blocking buffer (TBS containing 5% normal horse serum and 0.25% Triton X-100) for 1 hour at room temperature. After washing with PBS, the sections were reacted with a primary antibody at 4° C. overnight. As the primary antibody, purified anti-Glial Fibrillary Acidic Protein (GFAP) Antibody (Biolegend) and Anti-NeuN Antibody, clone A60 (Millipore) were diluted with TBS containing 5% normal horse serum and 0.25% Triton X-100 at 1:1000 and at 1:500, respectively, and used. After washing with TBS, the sections were reacted with a secondary antibody at room temperature for 3 hours. As the secondary antibody, both Alexa Fluor 594 donkey anti-mouse IgG (Jackson ImmunoResearch) and Alexa Fluor 594 donkey anti-chicken IgG (Jackson ImmunoResearch) were diluted with TBS containing 3% normal horse serum and 0.25% Triton X-100 at 1:500, and used. After washing with TBS, the sections were observed using BZ-X710 (KEYENCE) to obtain fluorescent images. For the section of the central part of the spinal cord of the rat, the cavity area of the injured part, the area of the region immunostained with the GFAP antibody, and the number of cells immunostained with the NeuN antibody present on the lines 1.5 mm rostal and caudal from the center of the injury were measured. GFAP is a marker for reactive astrocytes and NeuN is a marker for neurons. Immediately after creating crush injuries in the fifth cervical cord (C5) of Lewis rats (female, 8 to 14 weeks old, n=8/group) under anesthesia in the same manner as in Example 4, 500 mg/kg of bismuth subnitrate dissolved in saline, or vehicle (saline) was intraperitoneally administered. After the rats were kept for 8 weeks from injury creation, histological evaluation and sensory function evaluation were performed for pathological conditions at the chronic stage of the spinal cord injury. In the same manner as in Example 4, for the section of the central part of the spinal cord of the rat, the reactive astrocyte area, the cavity area of the injured part, and the number of remaining neurons present on the lines 1.5 mm rostal and caudal from the center of the injury were measured.

[3] = system: spinal cord crush injury rats; experiment: Sensory function evaluation (pain stimulus response time) in spinal cord crush injury model; format: in vivo, Lewis rats; details: single i.p. dose 500 mg/kg immediately after C5 crush injury; vs vehicle; FIG. 13
Protocol: Crush injuries were created in the fifth cervical cord (C5) of Lewis rats (female, 8 to 14 weeks old, n=14 to 18/group) under anesthesia by applying a pressure of 200 kdyn using an IH impactor. For seven consecutive days from the day of injury creation, 380 to 420 μL of the test compound dissolved in saline or DMSO, or vehicle was intraperitoneally administered. The daily doses were 20 mg/kg body weight of papaverine, 1 mg/kg body weight of mubritinib, and 1 mg/kg body weight of brexpiprazole. After the rats were kept for 8 weeks from injury creation, histological evaluation and sensory function evaluation for pathological conditions at the chronic stage of the spinal cord injury were performed. […] Immediately after creating crush injuries in the fifth cervical cord (C5) of Lewis rats (female, 8 to 14 weeks old, n=8/group) under anesthesia in the same manner as in Example 4, 500 mg/kg of bismuth subnitrate dissolved in saline, or vehicle (saline) was intraperitoneally administered. After the rats were kept for 8 weeks from injury creation, histological evaluation and sensory function evaluation were performed for pathological conditions at the chronic stage of the spinal cord injury.

[4] = system: spinal cord crush injury rats; experiment: Walking function analysis (DigiGait) in spinal cord crush injury model; format: in vivo, Lewis rats; details: single i.p. dose 500 mg/kg, 8 weeks after injury
Protocol: Immediately after creating crush injuries in the fifth cervical cord (C5) of Lewis rats (female, 8 to 14 weeks old, n=8/group) under anesthesia in the same manner as in Example 4, 500 mg/kg of bismuth subnitrate dissolved in saline, or vehicle (saline) was intraperitoneally administered. After the rats were kept for 8 weeks from injury creation, histological evaluation and sensory function evaluation were performed for pathological conditions at the chronic stage of the spinal cord injury.
The ground contacting area (the Paw Area) of each leg and the maximum possible walking speed were measured in rats before and 8 weeks after spinal cord injury creation using the DigiGait walking analysis system for small animals (Bioresearch Center Co., Ltd.) according to the manual. […] All rats before spinal cord injury creation were able to walk at a treadmill speed of 20 cm/sec. In the vehicle-administered group, the number of rats that were able to walk at a speed of 15 cm/sec or faster decreased to two individuals, whereas in the bismuth subnitrate-administered group, 6 individuals were able to walk at a speed of 15 cm/sec or faster (FIG. 15).

[5] = system: cerebral cortex injury mice; experiment: IgG leakage in cerebral cortex injury model; format: in vivo, C57BL/6 mice; details: i.p. day before and on day of injury; bismuth subnitrate 500, papaverine 20 mg/kg; vs vehicle; FIG. 16
Protocol: Protection of the BBSCB function in traumatic brain injury by papaverine, mubritinib, brexpiprazole, and bismuth subnitrate was evaluated by observing suppression of IgG leakage from the injured site using the following method. C57BL/6 mice (male, 8 to 13 weeks old, n=3 to 4/group) were intraperitoneally administered 200 μL of the test compound dissolved in saline or DMSO, or vehicle. The doses were 20 mg/kg body weight of papaverine, 1 mg/kg body weight of mubritinib, 1 mg/kg body weight of brexpiprazole, and 500 mg/kg body weight of bismuth subnitrate. On the next day after administration, injuries were created in the left cerebral hemisphere cortex of the mice under anesthesia by a wire-knife transection method. The mice were immobilized in a stereotaxic frame, and the left lateral 1 mm portion from the bregma of the cranial bone was opened with a microdrill. A wire-knife was inserted into the lateral 1.0 mm from the bregma and 0.5 mm deep in the left cerebral hemisphere, and the wire was extended caudally and pulled up to create the injury. […] For evaluation of the IgG-stained area, taken images were binarized into black and white using Photoshop CS3 (Adobe, CA, USA), and then quantified using Image J (Schneider et al., 2012). […] All quantitative evaluations were performed with the slides blinded. […]

[6] = i.p. daily for 7 days from C5 crush injury, papaverine 20, mubritinib 1, brexpiprazole 1 mg/kg

## O=C([O-])CC(O)(CC(=O)[O-])C(=O)[O-].O=C([O-])CC(O)(CC(=O)[O-])C(=O)[O-].[Bi+3].[K+].[K+].[K+] [Bismuth subcitrate, bismuth subcitrate]
[1]
  cell protective effect on hCMEC/D3 (cell viability) compared with zinc sulfate: significantly higher

## O=[N+]([O-])[O-].O=[N+]([O-])[O-].O=[N+]([O-])[O-].O=[N+]([O-])[O-].[Bi+3].[Bi+3].[Bi+3].[Bi+3].[Bi+3].[O-2].[OH-].[OH-].[OH-].[OH-].[OH-].[OH-].[OH-].[OH-].[OH-] [bismuth subnitrate]
[2]; single i.p. dose 500 mg/kg immediately after C5 crush injury, FIG. 11
  cavity area of the injured part: significantly reduced
[2]; single i.p. dose 500 mg/kg immediately after C5 crush injury, FIG. 12
  number of remaining neurons, rostral side and caudal side of the injured part: increased both on the rostral side and the caudal side
[3]
  response time of the forelimbs to pain stimulus: significantly longer
[4]; n=8/group, vehicle group two individuals, FIG. 15
  number of rats able to walk at a speed of 15 cm/sec or faster: 6 individuals
[4]; vs vehicle, FIG. 14
  ground contacting area (the Paw Area) on one side: significantly increased
[5]
  leakage of IgG from the injured site of the cerebral cortex: significantly suppressed
[1]
  cell protective effect on hCMEC/D3 (cell viability) compared with zinc sulfate: significantly higher

## O=c1ccc2ccc(OCCCCN3CCN(c4cccc5sccc45)CC3)cc2[nH]1 [brexpiprazole, 7-[4-[4-(1-benzothiophen-4-yl)piperazin-1-yl]butoxy]-1H-quinolin-2-one]
[2]; [6]
  reactive astrocyte area (GFAP positive area): significantly reduced

## COc1ccc(Cc2nccc3cc(OC)c(OC)cc23)cc1OC [papaverine, 1-[(3,4-dimethoxyphenyl)methyl]-6,7-dimethoxyisoquinoline]
[2]; [6]
  reactive astrocyte area (GFAP positive area): significantly reduced
[2]; i.p. daily for 7 days from C5 crush injury, papaverine 20, mubritinib 1, brexpiprazole 1 mg/kg, FIG. 7
  cavity area of the injured part: significantly reduced
[2]; i.p. daily for 7 days from C5 crush injury, papaverine 20, mubritinib 1, brexpiprazole 1 mg/kg, FIG. 8
  number of remaining neurons (NeuN-positive cells): significantly increased
[5]
  leakage of IgG from the injured site of the cerebral cortex: significantly suppressed

## bismuth tartrate
[1]
  cell protective effect on hCMEC/D3 (cell viability) compared with zinc sulfate: significantly higher
